For data set [1], the target named is T1, recombinant human plasminogen activator inhibitor-1 (PAI-1) (Homo sapiens, UniProt P05121).
T1 construct: purchased Molecular Innovations, Royal Oak, Mich
The data set is described as follows: Primary screen for the PAI-1 inhibition (residual tPA activity, Spectrozyme-tPA chromogenic substrate). It is filed as biochemical. To be noted: 25 μM test compound; inhibition of Plasminogen Activator Inhibitor-1. The method, then: Test compounds are dissolved in DMSO at a final concentration of 10 mM, then diluted 100× in physiologic buffer. The inhibitory assay is initiated by the addition of the test compound (1–100 μM final concentration, !maximum DMSO concentration of 0.2%) in a pH 6.6 buffer containing 140 nM recombinant human plasminogen activator inhibitor-1 (PAI-1; Molecular Innovations, Royal Oak, Mich.). Following a 1 hour incubation at room temperature, 70 nM of recombinant human tissue plasminogen activator (tPA) is added, and the combination of the test compound, PAI-1 and tPA is incubated for an additional 30 minutes. Following the second incubation, Spectrozyme-tPA (American Diagnostica, Greenwich, Conn.), a chromogenic substrate for tPA, is added and absorbance read at 405 nm at 0 and 60 minutes. Relative PAI-1 inhibition is equal to the residual tPA activity in the presence of the test compound and PAI-1. Control treatments include the complete inhibition of tPA by PAI-1 at the molar ratio employed (2:1), and the absence of any effect of the test compound on tPA alone.

T1 sequence (P05121 24-402): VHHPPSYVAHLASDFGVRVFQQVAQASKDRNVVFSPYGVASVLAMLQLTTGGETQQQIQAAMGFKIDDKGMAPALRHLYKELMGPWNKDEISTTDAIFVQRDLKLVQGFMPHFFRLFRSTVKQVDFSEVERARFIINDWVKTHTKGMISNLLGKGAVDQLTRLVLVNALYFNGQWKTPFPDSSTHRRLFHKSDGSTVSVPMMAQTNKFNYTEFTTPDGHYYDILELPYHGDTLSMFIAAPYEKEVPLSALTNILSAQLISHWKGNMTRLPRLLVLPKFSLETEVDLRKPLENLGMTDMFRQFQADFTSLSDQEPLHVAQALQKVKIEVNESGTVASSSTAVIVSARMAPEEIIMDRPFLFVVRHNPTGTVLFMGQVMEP

As to `CCCCC(=O)c1c(-c2ccc3c(Br)c(OCC(=O)O)ccc3c2)sc2ccccc12` [Compound 2, [1-Bromo-6-(3-pentanoyl-benzo[b]thiophen-2-yl)-naphthalen-2-yloxy]-acetic acid], the melting point – broadly, the temperature, or range, at which the solid turns liquid – lay within 164 to 165 °C. For the same molecule, the inhibition (in general, the change of the read-out against control, counted positive when it falls) at 25 µM in data set [1] is 69%.

For the molecule `CC(C)CC(=O)c1c(-c2ccc3c(Br)c(OCc4nnn[nH]4)ccc3c2)sc2ccccc12` [Compound 5, 1-{2-[5-Bromo-6-(1H-tetrazol-5-ylmethoxy)-naphthalen-2-yl]-benzo[b]thiophen-3-yl}-3-methyl-butan-1-one], the inhibition at 25 µM in data set [1] came out at 84%.

Consider `CCCCC(=O)c1c(-c2ccc3c(Br)c(OCc4nnn[nH]4)ccc3c2)sc2ccccc12` [Compound 1, 1-{2-[5-Bromo-6-(1H-tetrazol-5-ylmethoxy)-naphthalen-2-yl]-benzo[b]thiophen-3-yl}-pentan-1-one], for which, in data set [1], the inhibition at 25 µM turned out to be 59%.

As for `O=C(Cc1ccccc1)c1c(-c2ccc3c(Br)c(OCc4nnn[nH]4)ccc3c2)sc2ccccc12` [Compound 3, 1-{2-[5-Bromo-6-(1H-tetrazol-5-ylmethoxy)-naphthalen-2-yl]-benzo[b]thiophen-3-yl}-2-phenyl-ethanone], in data set [1], the inhibition at 25 µM was determined as 52%.

The molecule `O=C(O)COc1ccc2cc(-c3sc4ccccc4c3C(=O)Cc3ccccc3)ccc2c1Br` [Compound 4, [1-Bromo-6-(3-phenylacetyl-benzo[b]thiophen-2-yl)-naphthalen-2-yloxy]-acetic acid] returned a melting point of 170 to 172 °C. Further, the inhibition at 25 µM in data set [1] was 54%.

For `CC(C)(C)CC(=O)c1c(-c2ccc3c(Br)c(OCC(=O)O)ccc3c2)sc2ccccc12` [Compound 6, {1-Bromo-6-[3-(3,3-dimethyl-butyryl)-benzo[b]thiophen-2-yl]-naphthalen-2-yloxy}-acetic acid], the melting point fell in the range of 206 to 207 °C. The inhibition at 25 µM in data set [1] is 77%.

Values taken from patent US7163954B2, “Substituted naphthyl benzothiophene acids” (Wyeth, priority 2003, dated 2007).
